Values quoted from earlier work in US9556167B2, “TLR-agonist-conjugated antibody recruiting molecules (TLR-ARMs)” (YALE UNIVERSITY, priority 2012, dated 2017).

Assays:
[1] = tested on: advanced prostate cancer patients
[2] = tested on: aggressive end-stage prostate cancer

Row | Compound | prolongation of life on average [1] | patients with reduced PSA levels and tumor sizes [2]
1 | CC(=O)O[C@@]12CO[C@@H]1C[C@H](O)[C@@]1(C)C(=O)[C@H](O)C3=C(C)[C@@H](OC(=O)[C@H](O)[C@@H](NC(=O)OC(C)(C)C)c4ccccc4)C[C@@](O)([C@@H](OC(=O)c4ccccc4)[C@H]21)C3(C)C [Taxotere] | 2.5 months | –
2 | CC(=O)O[C@H]1CC[C@@]2(C)C(=CC[C@@H]3[C@@H]2CC[C@]2(C)C(c4cccnc4)=CC[C@@H]32)C1 [abiraterone acetate] | – | ≤ 70 % of patients
